Results taken from patent US20120225135A1 (priority 2010, published 2012).

What was measured:
[1] = system: Poliovirus type 1, ATCC VR-59; format: cell-based; conditions: pH 9
Total Count = assay: Disinfection of effluents, total count; format: cell-based; conditions: for Total Count: effluents, ClO2 dose 9.86 mg/L, 30 minutes; for Total Count per 100 mL: trickling filters effluents
Lactobacillus frigidus = assay: Microbiological effectiveness at cold temperatures; format: cell-based
[2] = system: Cryptosporidium parvum oocysts; conditions: in vivo
[3] = system: Salmonella choleraesuis, ATCC 10708; format: cell-based; conditions: pH 5
Enterobacter Cloacae = assay: Microbiological effectiveness at cold temperatures; format: cell-based
E. coli = assay: Sanitation of fishing holds, E. coli; conditions: cleaned surface sprayed with 10 ppm ClO2 solution
From the text: (§1) Gross filth removed and washed in detergent
(§2) Cleaned surface sprayed with 10 ppm ClO2 solution

[4] = system: Legionella pneumophila, ATCC 33153; format: cell-based; conditions: pH 5
TPC = assay: Sanitation of fishing holds, TPC; conditions: cleaned surface sprayed with 10 ppm ClO2 solution
From the text: as §1, §2

[5] = system: Pichia (Hansenula) anomala (20 percent sporulated); assay: Microbiological effectiveness at cold temperatures; format: cell-based
Fecal Coli = assay: Disinfection of effluents, fecal coli; format: cell-based; conditions: for Fecal Coli: ClO2 dose 9.86 mg/L, 30 minutes; for Fecal Coli EC Media per 100 mL: trickling filters effluents
[6] = system: Escherichia coli, ATCC 11229; format: cell-based; conditions: pH 5
[7] = Processing of potatoes, micro-biological control of process water
[8] = ClO2 dose 2.7 mg/L, contact time 5 min
[9] = ClO2 dose 2.7 mg/L, contact time 20 min
[10] = ClO2 dose 2.7 mg/L, contact time 35 min
[11] = ClO2 dose 5.0 mg/L, contact time 15 min
[12] = ClO2 dose 10.8 mg/L, contact time 5 min
[13] = ClO2 dose 10.8 mg/L, contact time 20 min
[14] = ClO2 dose 10.8 mg/L, contact time 35 min

[O][Cl+][O-] [Chlorine Dioxide, chlorine dioxide]
reduction in titer [1]: > 4 log 10 | Total Count (Total Count; pH initial 4.6, final 4.4): 5 MPN per 100 ml | Total Count (Total Count; pH initial 5.5, final 5.6): 15 MPN per 100 ml | Total Count (Total Count; pH initial 6.5, final 6.7): 30 MPN per 100 ml | Total Count (Total Count; pH initial 7.5, final 7.6): 1 × 10^2 MPN per 100 ml | Total Count (Total Count; pH initial 8.2, final 8.1): 2 × 10^2 MPN per 100 ml | Total Count (Total Count; pH initial 9.1, final 9.2): 2.5 × 10^3 MPN per 100 ml | Total Count (Total Count; pH initial 10.0, final 10.0): 6.8 × 10^2 MPN per 100 ml | Total Count per 100 mL (Total Count; [8]): 6.75 × 10^7 per 100 mL | Total Count per 100 mL (Total Count; [9]): 5.3 × 10^7 per 100 mL | Total Count per 100 mL (Total Count; [10]): 3.1 × 10^7 per 100 mL | Total Count per 100 mL (Total Count; [11]): 2.0 × 10^6 per 100 mL | Total Count per 100 mL (Total Count; ClO2 dose 5.0 mg/L, contact time 30 min): 1.6 × 10^5 per 100 mL | Total Count per 100 mL (Total Count; ClO2 dose 5.0 mg/L, contact time 45 min): 9.0 × 10^4 per 100 mL | Total Count per 100 mL (Total Count; [12]): 1.2 × 10^5 per 100 mL | Total Count per 100 mL (Total Count; [13]): 2.9 × 10^4 per 100 mL | Total Count per 100 mL (Total Count; [14]): 2.5 × 10^4 per 100 mL | Deactivation (%) (Lactobacillus frigidus): 99.999% | reduction of infectivity for mice [2]: > 3 log 10 | reduction in titer [3]: > 6 log 10 | Deactivation (%) (Enterobacter Cloacae): 99.999% | E. coli (E. coli): below level of detection | reduction in titer [4]: > 6 log 10 | TPC at day zero (TPC): less than 7×10^4 | Deactivation (%) [5]: 99.999% | Fecal Coli (Fecal Coli; effluents, pH initial 4.6, final 4.4): 2 MPN per 100 ml | Fecal Coli (Fecal Coli; effluents, pH initial 5.5, final 5.6): 2 MPN per 100 ml | Fecal Coli (Fecal Coli; effluents, pH initial 6.5, final 6.7): 0 MPN per 100 ml | Fecal Coli (Fecal Coli; effluents, pH initial 7.5, final 7.6): 1.8 MPN per 100 ml | Fecal Coli (Fecal Coli; effluents, pH initial 8.2, final 8.1): 23 MPN per 100 ml | Fecal Coli (Fecal Coli; effluents, pH initial 9.1, final 9.2): 2.7 × 10^2 MPN per 100 ml | Fecal Coli (Fecal Coli; effluents, pH initial 10.0, final 10.0): 1.3 × 10^4 MPN per 100 ml | kill of fecal coli (Fecal Coli; effluents, dose 2.7 mg/L ClO2, 30 min. contact time): 98.9% | fecal coli organisms survived (Fecal Coli; effluents, dose 10.8 mg/L ClO2, 30 min. contact time): two | Fecal Coli EC Media per 100 mL (Fecal Coli; [8]): 2.4 × 10^7 per 100 mL | Fecal Coli EC Media per 100 mL (Fecal Coli; [9]): 1.3 × 10^7 per 100 mL | Fecal Coli EC Media per 100 mL (Fecal Coli; [10]): 3.5 × 10^5 per 100 mL | Fecal Coli EC Media per 100 mL (Fecal Coli; [11]): 2.4 × 10^6 per 100 mL | Fecal Coli EC Media per 100 mL (Fecal Coli; [12]): 9.2 × 10^2 per 100 mL | Fecal Coli EC Media per 100 mL (Fecal Coli; [13]): 14 per 100 mL | Fecal Coli EC Media per 100 mL (Fecal Coli; [14]): 2 per 100 mL | reduction in titer [6]: > 6 log 10 | micro-biological control compared with chlorine [7]: better micro-biological control agent than chlorine at 5-10 ppm
